Measured values published in the supplement of paper PMC10307832.

How the values were obtained:
Assay in all cases: relative viability (nuclei count vs DMSO), 5 days (fraction); higher = more cells survive
H3255 = test system: H3255
How it was run: (§1)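 Each reported value is a median over duplicate plates. It expresses relative viability: treated-well nuclei count divided by vehicle-well nuclei count. Lung cancer cell lines in 1536-well plates were dosed by pin tool a day after seeding, alone with one drug or with a fixed anchor-drug dose plus five library-drug doses (not always all listed) in √10 steps, and nuclei were counted after 5 days.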

NCI-H2126 = test system: NCI-H2126
How it was run: as §1

LCLC-97TM1 = test system: LCLC-97TM1
How it was run: as §1

NCI-H647 = test system: NCI-H647
How it was run: as §1

HOP-62 = test system: HOP-62
How it was run: as §1

LXF-289 = test system: LXF-289
How it was run: as §1

NCI-H1993 = test system: NCI-H1993
How it was run: as §1

NCI-H2023 = test system: NCI-H2023
How it was run: as §1

NCI-H2009 = test system: NCI-H2009
How it was run: as §1

NCI-H322M = test system: NCI-H322M
How it was run: as §1

NCI-H1734 = test system: NCI-H1734
How it was run: as §1

EPLC-272H = test system: EPLC-272H
How it was run: as §1

NCI-H1563 = test system: NCI-H1563
How it was run: as §1

NCI-H727 = test system: NCI-H727
How it was run: as §1

NCI-H2085 = test system: NCI-H2085
How it was run: as §1

NCI-H2347 = test system: NCI-H2347
How it was run: as §1

NCI-H661 = test system: NCI-H661
How it was run: as §1

PC-14 = test system: PC-14
How it was run: as §1

SW 1573 = test system: SW 1573
How it was run: as §1

NCI-H1915 = test system: NCI-H1915
How it was run: as §1

EMC-BAC-2 = test system: EMC-BAC-2
How it was run: as §1

SK-LU-1 = test system: SK-LU-1
How it was run: as §1

Question: How did the relative viability (H3255; first compound 0.0002 µM) turn out when `CC(=O)O[C@@]12CO[C@@H]1C[C@H](O)[C@@]1(C)C(=O)[C@H](O)C3=C(C)[C@@H](OC(=O)[C@H](O)[C@@H](NC(=O)OC(C)(C)C)c4ccccc4)C[C@@](O)([C@@H](OC(=O)c4ccccc4)[C@H]21)C3(C)C` [Docetaxel] + N=C(N)NC(=N)NCCc1ccccc1 [Phenformin] (partner 250 µM) was run?
Answer: 0.353

Question: And the relative viability (H3255; first compound 0.000632 µM)?
Answer: 0.349

Question: And the relative viability (H3255; first compound 0.002 µM)?
Answer: 0.312

Question: What about the relative viability (H3255; first compound 0.006325 µM) of the same compound?
Answer: 0.357

Question: And the relative viability (H3255; first compound 0.02 µM)?
Answer: 0.259

Question: What about the relative viability (NCI-H2126; first compound 0.0002 µM) of the same compound?
Answer: 0.517

Question: And the relative viability (NCI-H2126; first compound 0.000632 µM)?
Answer: 0.468

Question: What about the relative viability (NCI-H2126; first compound 0.002 µM) of the same compound?
Answer: 0.297

Question: What about the relative viability (NCI-H2126; first compound 0.006325 µM) of the same compound?
Answer: 0.33

Question: And the relative viability (NCI-H2126; first compound 0.02 µM)?
Answer: 0.223

Question: And the relative viability (LCLC-97TM1; first compound 0.0002 µM)?
Answer: 0.403

Question: What about the relative viability (LCLC-97TM1; first compound 0.000632 µM) of the same compound?
Answer: 0.366

Question: And the relative viability (LCLC-97TM1; first compound 0.002 µM)?
Answer: 0.267

Question: And the relative viability (LCLC-97TM1; first compound 0.006325 µM)?
Answer: 0.162

Question: And the relative viability (LCLC-97TM1; first compound 0.02 µM)?
Answer: 0.131

Question: And the relative viability (NCI-H647; first compound 0.0002 µM)?
Answer: 0.329

Question: What about the relative viability (NCI-H647; first compound 0.000632 µM) of the same compound?
Answer: 0.322

Question: And the relative viability (NCI-H647; first compound 0.002 µM)?
Answer: 0.133

Question: What about the relative viability (NCI-H647; first compound 0.006325 µM) of the same compound?
Answer: 0.106

Question: And the relative viability (NCI-H647; first compound 0.02 µM)?
Answer: 0.0836

Question: And the relative viability (HOP-62; first compound 0.0002 µM)?
Answer: 0.671

Question: What about the relative viability (HOP-62; first compound 0.000632 µM) of the same compound?
Answer: 0.501

Question: What about the relative viability (HOP-62; first compound 0.002 µM) of the same compound?
Answer: 0.322

Question: And the relative viability (LXF-289; first compound 0.0002 µM)?
Answer: 0.521

Question: And the relative viability (LXF-289; first compound 0.000632 µM)?
Answer: 0.42

Question: And the relative viability (LXF-289; first compound 0.002 µM)?
Answer: 0.127

Question: What about the relative viability (LXF-289; first compound 0.006325 µM) of the same compound?
Answer: 0.0915

Question: And the relative viability (LXF-289; first compound 0.02 µM)?
Answer: 0.0828

Question: And the relative viability (NCI-H1993; first compound 0.0002 µM)?
Answer: 0.559

Question: What about the relative viability (NCI-H1993; first compound 0.000632 µM) of the same compound?
Answer: 0.604

Question: What about the relative viability (NCI-H1993; first compound 0.002 µM) of the same compound?
Answer: 0.556

Question: And the relative viability (NCI-H1993; first compound 0.006325 µM)?
Answer: 0.489

Question: What about the relative viability (NCI-H1993; first compound 0.02 µM) of the same compound?
Answer: 0.439

Question: And the relative viability (NCI-H2023; first compound 0.0002 µM)?
Answer: 0.358

Question: And the relative viability (NCI-H2023; first compound 0.000632 µM)?
Answer: 0.292

Question: And the relative viability (NCI-H2023; first compound 0.002 µM)?
Answer: 0.118

Question: What about the relative viability (NCI-H2023; first compound 0.006325 µM) of the same compound?
Answer: 0.0961

Question: What about the relative viability (NCI-H2023; first compound 0.02 µM) of the same compound?
Answer: 0.0806

Question: And the relative viability (NCI-H2009; first compound 0.0002 µM)?
Answer: 0.483

Question: And the relative viability (NCI-H2009; first compound 0.000632 µM)?
Answer: 0.526

Question: What about the relative viability (NCI-H2009; first compound 0.002 µM) of the same compound?
Answer: 0.463

Question: What about the relative viability (NCI-H2009; first compound 0.006325 µM) of the same compound?
Answer: 0.321

Question: And the relative viability (NCI-H2009; first compound 0.02 µM)?
Answer: 0.202

Question: What about the relative viability (NCI-H322M; first compound 0.0002 µM) of the same compound?
Answer: 0.807

Question: And the relative viability (NCI-H322M; first compound 0.000632 µM)?
Answer: 0.765

Question: What about the relative viability (NCI-H322M; first compound 0.002 µM) of the same compound?
Answer: 0.656

Question: And the relative viability (NCI-H322M; first compound 0.006325 µM)?
Answer: 0.478

Question: What about the relative viability (NCI-H322M; first compound 0.02 µM) of the same compound?
Answer: 0.332

Question: And the relative viability (NCI-H1734; first compound 0.0002 µM)?
Answer: 0.296

Question: And the relative viability (NCI-H1734; first compound 0.000632 µM)?
Answer: 0.338

Question: And the relative viability (NCI-H1734; first compound 0.002 µM)?
Answer: 0.232

Question: And the relative viability (NCI-H1734; first compound 0.006325 µM)?
Answer: 0.221

Question: What about the relative viability (NCI-H1734; first compound 0.02 µM) of the same compound?
Answer: 0.168

Question: What about the relative viability (EPLC-272H; first compound 0.0002 µM) of the same compound?
Answer: 0.304

Question: What about the relative viability (EPLC-272H; first compound 0.000632 µM) of the same compound?
Answer: 0.242

Question: And the relative viability (EPLC-272H; first compound 0.002 µM)?
Answer: 0.194

Question: And the relative viability (EPLC-272H; first compound 0.006325 µM)?
Answer: 0.0792

Question: And the relative viability (EPLC-272H; first compound 0.02 µM)?
Answer: 0.0848

Question: And the relative viability (NCI-H1563; first compound 0.0002 µM)?
Answer: 0.619

Question: What about the relative viability (NCI-H1563; first compound 0.000632 µM) of the same compound?
Answer: 0.683

Question: What about the relative viability (NCI-H1563; first compound 0.002 µM) of the same compound?
Answer: 0.661

Question: What about the relative viability (NCI-H1563; first compound 0.006325 µM) of the same compound?
Answer: 0.582

Question: And the relative viability (NCI-H1563; first compound 0.02 µM)?
Answer: 0.479

Question: What about the relative viability (NCI-H727; first compound 0.0002 µM) of the same compound?
Answer: 0.49

Question: What about the relative viability (NCI-H727; first compound 0.000632 µM) of the same compound?
Answer: 0.601

Question: What about the relative viability (NCI-H727; first compound 0.002 µM) of the same compound?
Answer: 0.457

Question: And the relative viability (NCI-H727; first compound 0.006325 µM)?
Answer: 0.472

Question: And the relative viability (NCI-H727; first compound 0.02 µM)?
Answer: 0.354

Question: What about the relative viability (NCI-H2085; first compound 0.0002 µM) of the same compound?
Answer: 0.735

Question: And the relative viability (NCI-H2085; first compound 0.000632 µM)?
Answer: 0.651

Question: And the relative viability (NCI-H2085; first compound 0.002 µM)?
Answer: 0.461

Question: And the relative viability (NCI-H2085; first compound 0.006325 µM)?
Answer: 0.389

Question: And the relative viability (NCI-H2085; first compound 0.02 µM)?
Answer: 0.194

Question: And the relative viability (NCI-H2347; first compound 0.0002 µM)?
Answer: 0.496

Question: And the relative viability (NCI-H2347; first compound 0.000632 µM)?
Answer: 0.303

Question: What about the relative viability (NCI-H2347; first compound 0.002 µM) of the same compound?
Answer: 0.295

Question: What about the relative viability (NCI-H2347; first compound 0.006325 µM) of the same compound?
Answer: 0.201

Question: And the relative viability (NCI-H2347; first compound 0.02 µM)?
Answer: 0.256

Question: What about the relative viability (NCI-H661; first compound 0.0002 µM) of the same compound?
Answer: 0.334

Question: What about the relative viability (NCI-H661; first compound 0.000632 µM) of the same compound?
Answer: 0.32

Question: And the relative viability (NCI-H661; first compound 0.002 µM)?
Answer: 0.317

Question: What about the relative viability (NCI-H661; first compound 0.006325 µM) of the same compound?
Answer: 0.267

Question: What about the relative viability (NCI-H661; first compound 0.02 µM) of the same compound?
Answer: 0.221

Question: And the relative viability (PC-14; first compound 0.0002 µM)?
Answer: 0.575

Question: What about the relative viability (PC-14; first compound 0.000632 µM) of the same compound?
Answer: 0.212

Question: And the relative viability (PC-14; first compound 0.002 µM)?
Answer: 0.129

Question: And the relative viability (PC-14; first compound 0.006325 µM)?
Answer: 0.0718

Question: And the relative viability (PC-14; first compound 0.02 µM)?
Answer: 0.0382

Question: What about the relative viability (SW 1573; first compound 0.0002 µM) of the same compound?
Answer: 0.311

Question: And the relative viability (SW 1573; first compound 0.000632 µM)?
Answer: 0.344

Question: What about the relative viability (SW 1573; first compound 0.002 µM) of the same compound?
Answer: 0.159

Question: And the relative viability (SW 1573; first compound 0.02 µM)?
Answer: 0.119

Question: What about the relative viability (NCI-H1915; first compound 0.0002 µM) of the same compound?
Answer: 0.364

Question: And the relative viability (NCI-H1915; first compound 0.000632 µM)?
Answer: 0.312

Question: And the relative viability (NCI-H1915; first compound 0.002 µM)?
Answer: 0.21

Question: What about the relative viability (NCI-H1915; first compound 0.006325 µM) of the same compound?
Answer: 0.147

Question: What about the relative viability (NCI-H1915; first compound 0.02 µM) of the same compound?
Answer: 0.116

Question: What about the relative viability (EMC-BAC-2; first compound 0.0002 µM) of the same compound?
Answer: 0.509

Question: And the relative viability (EMC-BAC-2; first compound 0.000632 µM)?
Answer: 0.412

Question: What about the relative viability (EMC-BAC-2; first compound 0.002 µM) of the same compound?
Answer: 0.306

Question: What about the relative viability (EMC-BAC-2; first compound 0.006325 µM) of the same compound?
Answer: 0.278

Question: And the relative viability (EMC-BAC-2; first compound 0.02 µM)?
Answer: 0.177

Question: What about the relative viability (SK-LU-1; first compound 0.0002 µM) of the same compound?
Answer: 0.48

Question: What about the relative viability (SK-LU-1; first compound 0.000632 µM) of the same compound?
Answer: 0.285

Question: And the relative viability (SK-LU-1; first compound 0.002 µM)?
Answer: 0.239

Question: And the relative viability (SK-LU-1; first compound 0.006325 µM)?
Answer: 0.183

Question: And the relative viability (SK-LU-1; first compound 0.02 µM)?
Answer: 0.115
